The results in this text go back to patent US8367648B2, “Substituted 16,17-annellated steroid compounds for use in womens healthcare” (MSD OSS B.V., priority 2009, dated 2013).

Data set [1] deals with T1, progesterone receptor B (PR-B) (Homo sapiens, UniProt P06401).
T1 sequence (P06401 1-933): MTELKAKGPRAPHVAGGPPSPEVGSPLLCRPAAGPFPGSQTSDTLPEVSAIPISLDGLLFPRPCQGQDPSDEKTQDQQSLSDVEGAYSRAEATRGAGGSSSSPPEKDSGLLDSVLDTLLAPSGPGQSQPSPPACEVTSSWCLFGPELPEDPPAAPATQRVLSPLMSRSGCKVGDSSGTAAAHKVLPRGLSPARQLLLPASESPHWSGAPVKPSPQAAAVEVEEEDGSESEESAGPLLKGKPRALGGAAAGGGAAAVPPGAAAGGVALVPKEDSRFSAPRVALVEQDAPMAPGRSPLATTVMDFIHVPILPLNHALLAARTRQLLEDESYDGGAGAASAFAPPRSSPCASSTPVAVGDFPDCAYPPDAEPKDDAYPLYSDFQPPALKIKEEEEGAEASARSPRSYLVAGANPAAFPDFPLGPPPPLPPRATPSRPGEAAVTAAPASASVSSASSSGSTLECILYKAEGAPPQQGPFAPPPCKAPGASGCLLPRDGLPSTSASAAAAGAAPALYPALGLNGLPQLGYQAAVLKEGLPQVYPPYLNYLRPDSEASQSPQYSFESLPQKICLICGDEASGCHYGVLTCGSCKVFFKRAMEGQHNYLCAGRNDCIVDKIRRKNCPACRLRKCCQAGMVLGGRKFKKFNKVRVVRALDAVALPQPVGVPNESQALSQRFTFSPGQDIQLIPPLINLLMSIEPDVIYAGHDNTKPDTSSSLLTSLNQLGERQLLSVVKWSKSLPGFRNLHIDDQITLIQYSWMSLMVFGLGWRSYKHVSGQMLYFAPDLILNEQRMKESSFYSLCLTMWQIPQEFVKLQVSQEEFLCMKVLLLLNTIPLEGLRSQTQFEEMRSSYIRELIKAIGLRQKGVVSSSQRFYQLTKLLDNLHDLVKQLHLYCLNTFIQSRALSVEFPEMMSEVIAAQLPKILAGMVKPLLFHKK
The data set can be described thus: In vitro nuclear receptor profile, PR-B agonism. It is filed as cell-based.

Data set [2] in a line: Embryofetal toxicity study in pregnant rats.
Data set [3] has as its target T2, PR-A (Homo sapiens, UniProt P06401).
T2 sequence (P06401 1-769 isoform P06401-2): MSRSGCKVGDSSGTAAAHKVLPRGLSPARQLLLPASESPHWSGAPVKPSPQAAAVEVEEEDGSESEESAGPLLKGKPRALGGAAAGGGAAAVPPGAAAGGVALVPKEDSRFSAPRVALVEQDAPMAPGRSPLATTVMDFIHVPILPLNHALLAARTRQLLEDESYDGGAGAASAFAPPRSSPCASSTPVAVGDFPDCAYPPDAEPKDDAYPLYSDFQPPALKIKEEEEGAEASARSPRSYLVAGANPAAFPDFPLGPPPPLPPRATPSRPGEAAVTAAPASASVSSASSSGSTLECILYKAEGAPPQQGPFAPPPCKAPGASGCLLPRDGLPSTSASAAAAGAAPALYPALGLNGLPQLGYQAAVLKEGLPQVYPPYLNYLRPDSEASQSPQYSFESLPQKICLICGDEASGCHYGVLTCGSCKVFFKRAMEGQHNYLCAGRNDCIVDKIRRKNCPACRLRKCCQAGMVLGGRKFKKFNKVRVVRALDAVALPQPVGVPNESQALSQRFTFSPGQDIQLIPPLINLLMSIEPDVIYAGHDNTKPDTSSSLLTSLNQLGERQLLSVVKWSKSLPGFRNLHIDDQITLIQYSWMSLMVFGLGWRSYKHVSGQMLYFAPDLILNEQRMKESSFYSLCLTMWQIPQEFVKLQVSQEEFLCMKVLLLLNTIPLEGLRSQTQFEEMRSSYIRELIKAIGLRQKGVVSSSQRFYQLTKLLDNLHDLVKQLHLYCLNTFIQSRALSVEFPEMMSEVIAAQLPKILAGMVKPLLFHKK
The data set can be described thus: In vitro nuclear receptor profile, PR-A antagonism. It is filed as cell-based.

As usually defined, the EC50 is the midpoint of the concentration-response curve. One may read the IC50 as the point on the concentration scale where inhibition reaches its midpoint.

For the compound `CCC[C@@H]1Cc2cc(O)ccc2[C@H]2CC[C@@]3(C)[C@@H](C[C@H]4CCC(=O)C[C@]43O)[C@H]12` [Compound 10, (7α,16β,17α)-3,17-dihydroxy-7-propyl-16,24-cyclo-19,21-dinorchola-1,3,5(10)-trien-22-one], the PR-B ago eff in data set [1] (agonist efficacy) is recorded as 0.49. Also, the “activity at PR-B in words” value in data set [1] (nanomolar activity) is reported as “partial (ant)agonist”. Further, in data set [1] (read-out: EC50 for progesterone receptor B (PR-B)), the EC50 was found to be 3.8 nM. Also, the “minor defects (wavy ribs) incidence” value in data set [2] (0.1 mg/kg) is on record as 4/153. Besides, the major fetal defects entry in data set [2] (treated groups) was “No major defects”. For the same compound, the PR-A ant anteff in data set [3] (antagonist efficacy) was found to be 0.54. In addition, the IC50 in data set [3] (antagonist mode, read-out: PR-A ant IC50) came to 27 nM.
